This is an account of results in patent US12629348B2, “Method and composition for treating osteoarthritis” (Vireo Systems, Inc., priority 2013, dated 2026).

“Also recorded” adds a separate entry of the source.

The test system of experiment [1] is brain endothelial cells. The experiment is described as follows: Release of PGE2 from brain endothelial cells exposed to bacterial endotoxin. It is filed as cell-based. Particulars: FIG. 1. An excerpt: The brain endothelial cells were first exposed to bacterial endotoxin.
For experiment [2], the target named is cyclooxygenase-1 (COX-1) (Homo sapiens, UniProt P23219). In words: Inhibition of cyclooxygenase-1 activity.
Sequence of cyclooxygenase-1 (COX-1) (P23219 24-599, species assumed): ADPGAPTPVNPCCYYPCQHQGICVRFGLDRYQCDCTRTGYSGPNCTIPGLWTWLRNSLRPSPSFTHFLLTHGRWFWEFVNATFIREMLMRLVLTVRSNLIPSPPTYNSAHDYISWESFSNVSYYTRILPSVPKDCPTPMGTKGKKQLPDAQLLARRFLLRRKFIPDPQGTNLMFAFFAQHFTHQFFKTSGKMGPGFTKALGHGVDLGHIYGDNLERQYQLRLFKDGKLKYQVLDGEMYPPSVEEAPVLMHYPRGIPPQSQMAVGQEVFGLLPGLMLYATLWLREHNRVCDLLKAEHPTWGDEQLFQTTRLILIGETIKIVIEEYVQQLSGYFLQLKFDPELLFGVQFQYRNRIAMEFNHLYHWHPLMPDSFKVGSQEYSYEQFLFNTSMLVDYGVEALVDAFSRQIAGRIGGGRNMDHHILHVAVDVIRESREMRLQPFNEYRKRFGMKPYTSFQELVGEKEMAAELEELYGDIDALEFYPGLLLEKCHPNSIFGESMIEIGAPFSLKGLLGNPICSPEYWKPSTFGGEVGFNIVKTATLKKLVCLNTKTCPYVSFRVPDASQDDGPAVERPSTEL
Experiment [3] concerns PGE2. The experiment is described as follows: Plasma PGE2 (PGE2 metabolite competitive EIA) in OA canines. It is filed as in vivo, canine. The settings on record: 36 mg/kg/day oral. On the procedure:
The double-blind study was performed on a total of 30 adult canines of various breeds in five different private practice clinics. Owner consent was obtained prior to participation in the study. Each clinic was responsible for enrolling 6 canines into the study. Inclusion criteria for the study consisted of clinical assessment and radiograph confirmation of OA in at least one joint and a score of 22 or greater on the Helsinki chronic pain index (“HCPI”). Use of NSAIDs or other dietary supplements for OA were allowed, provided the current treatment regimens had not been altered for a period of at least three months. […]
In addition to the standard blood chemistry profile, blood samples taken before and at the conclusion of the two-week trial period were analyzed for PGE2 and SAA. […] Both plasma and serum samples were centrifuged at 2000×g for 10 minutes and the plasma and serum supernatants removed and frozen at […] until analyzed for PGE2 and SAA using enzyme-linked immunosorbent assays (“HA”). […] Plasma samples were analyzed for PGE2 using the bicycle PGE2 competitive EIA kit purchased from Cayman Chemical (Ann Arbor, MI). The assay converts PGE2 metabolites into a stable derivative that is measured using EIA. Samples (100 μl) were analyzed in triplicate and PGE2 concentrations determined by use of standard curve. […]

Experiment [4] addresses T1, cyclooxygenase-2 (COX-2) (Homo sapiens, UniProt P35354).
T1 sequence (P35354 18-604): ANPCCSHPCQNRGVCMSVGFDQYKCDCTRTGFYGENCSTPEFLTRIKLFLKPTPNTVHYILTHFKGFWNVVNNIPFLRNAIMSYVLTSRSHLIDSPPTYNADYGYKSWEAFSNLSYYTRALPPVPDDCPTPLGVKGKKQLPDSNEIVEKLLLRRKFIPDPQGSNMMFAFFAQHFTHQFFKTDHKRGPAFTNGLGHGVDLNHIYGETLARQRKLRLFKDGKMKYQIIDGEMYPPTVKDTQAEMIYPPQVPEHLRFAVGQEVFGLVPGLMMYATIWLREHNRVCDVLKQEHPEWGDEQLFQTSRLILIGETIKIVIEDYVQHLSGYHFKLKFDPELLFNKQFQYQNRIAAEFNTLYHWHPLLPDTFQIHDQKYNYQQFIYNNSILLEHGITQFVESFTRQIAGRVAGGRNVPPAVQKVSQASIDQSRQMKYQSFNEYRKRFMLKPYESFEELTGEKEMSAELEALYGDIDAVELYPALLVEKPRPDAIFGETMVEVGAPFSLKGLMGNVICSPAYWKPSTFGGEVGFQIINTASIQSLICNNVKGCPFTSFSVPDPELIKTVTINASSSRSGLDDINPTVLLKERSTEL
In words: Inhibition of cyclooxygenase-2 activity.

Experiment [5] deals with canines having OA. The experiment is described as follows: Double-blind randomized trial in OA canines: owner assessment of pain and mobility (Helsinki chronic pain index, HCPI). It is filed as in vivo, canine. On the procedure: The following example evaluates the effectiveness of Alpha-GEE on both pain and mobility in a double-blind randomized trial in canines having OA. […] Together these findings provide clinical evidence of the effectiveness of treatments with Alpha-GEE in reducing the pain and restricted mobility of canines with OA.
The double-blind study was performed on a total of 30 adult canines of various breeds in five different private practice clinics. Owner consent was obtained prior to participation in the study. Each clinic was responsible for enrolling 6 canines into the study. Inclusion criteria for the study consisted of clinical assessment and radiograph confirmation of OA in at least one joint and a score of 22 or greater on the Helsinki chronic pain index (“HCPI”). Use of NSAIDs or other dietary supplements for OA were allowed, provided the current treatment regimens had not been altered for a period of at least three months. A randomized block design was used with canines assigned in a one to one ratio into either placebo (36 mg/kg/day maltose-dextran; Vireo Resources, Plattsmouth, NE) or Alpha-GEE (36 mg/kg/day; Vireo Resources, Plattsmouth, NE) treatment group. The block size was six canines, corresponding to the total number of canines enrolled from each clinic. Group assignments for each canine were blinded to both the owners and attending veterinarian until all the data was collected and reported. Both Alpha-GEE and placebo were provided in 400 mg capsules and owners were instructed on the proper method for daily oral administration of capsules to their canines and provided with the appropriate number of capsules for the duration of the 2-week study. Blood samples were taken at both the start and conclusion of the two-week trial period to monitor for changes in blood chemistry as well as potential changes in inflammatory markers as described below. Owners completed the HCPI prior to starting the study, one-week after starting the study, and a final time at the conclusion of the study at two-weeks.
Statistical evaluations of pain (HCPI), mobility (pedometer readings), and inflammatory markers were performed using ANOVA and Student Newman Keuls post-hoc comparison of means.
Owner assessment of pain and mobility in canines participating in the trial were based on the HCPI. The HCPI is a method for appraisal of pain and mobility in canines. The assessment is based on owner responses to eleven questions with a numerical answer between 0-4. Scoring on the HCPI ranges from 0 to 44, with higher numbers reflecting more pain and immobility present in the canine. Canines in both placebo and treatment group had similar initial pre-trial HCPI scores. […]

Where [6] appears, read: 1 μM (first of three values printed for '1 μM and 100 μM').
Where [7] appears, read: 100 μM (third of three values printed for '1 μM and 100 μM').
Where [8] appears, read: concentration not printed (second of three values printed for '1 μM and 100 μM').

As to “ethyl (α-guanido-methyl) ethanoate [Alpha-GEE]”, the entries for the “reduction in the release of PGE2 from brain endothelial cells” value in experiment [1] (concentration of about 20 μM or more) and in experiment [1] (concentration of about 1000 μM or more) were at least 50% and “greater than 50%”, respectively. The “inhibition of COX-1 activity” value in experiment [2] (0.1 μM) is reported as “about 20%”; in experiment [2] (setting [6]) it was “about 20%”; in experiment [2] (setting [7]), “about 15%”; in experiment [2] (setting [8]), “about 15%”. In addition, the “concentration dependency of inhibition of COX-1” value in experiment [2] (0.1-100 μM, FIG. 2) was “did not show a concentration dependency”. Moreover, in experiment [3] (mean ± SD after two weeks, pre-trial 268 ± 11), the “PGE2 plasma concentration, post-trial” value amounted to 264 ± 10 pg/mL. For the same substance, in experiment [3] (two-week trial, 36 mg/kg/day), the “difference between pre-trial and post-trial plasma levels of PGE2” value is on record as “No significant differences; also recorded: no difference”. Also, the “inhibition of COX-2 activity” value is “about 10%” in experiment [4] (0.1 μM), “about 15%” in experiment [4] (setting [6]), “about 15%” in experiment [4] (setting [7]) and “about 18%” in experiment [4] (setting [8]). Also, the “concentration dependency of inhibition of COX-2” value in experiment [4] (0.1-100 μM, FIG. 2) was “did not show a concentration dependency”. Besides, the “reduction in HCPI score” value in experiment [5] (after the first week, 36 mg/kg/day oral, not statistically different from placebo) was 10-15%. Further, in experiment [5] (after two weeks, 36 mg/kg/day oral, pre-trial value 28, scale 0 to 44), the “HCPI score, post-trial value” is recorded as 15. For the same substance, in experiment [5] (two weeks, p<0.001), the “HCPI scores at the conclusion of the study versus placebo” value is reported as “significantly different”. Besides, in experiment [5] (two weeks, range 2 to 20, placebo 3+4), the “magnitude of change in HCPI scores during the entire trial (mean+SD)” value is 13+7.
